{"source": "paper PMC9587990", "about": "“Molecular basis for isoform-selective inhibition of presenilin-1 by MRK-560” (Nature Communications, 2022)", "key": {"[1]": {"target": "T1, PS2 PI287-288TL γ-secretase complex (Homo sapiens, UniProt P49810, I288L/P287T)", "T1 construct": "made in house", "experiment": "in vitro cleavage assay, Aβ40 production by AlphaLISA", "assay_type": "biochemical", "settings": "for remaining activity at 0.002 µM / remaining activity at 0.04 µM / remaining activity at 0.2 µM / remaining activity at 1 µM / remaining activity at 10 µM / remaining activity at 20 µM: 4 h", "procedure": "In total we generated six variants, including single and double residue swapping of Thr281/Leu282 in PS1 with Pro287/Ile288 in PS2, respectively. MRK-560 response to the six PS1/PS2 mutant-containing complexes, each purified to homogeneity, was examined in the in vitro cleavage assay (Fig. 4). All proteins used for the activity assay were sub-cloned, expressed and purified as described. Protein concentration was determined using the Bradford method. […] The cleavage reaction was conducted at 37 °C for 4 h. The cleaved products of these substrates were detected using a monoclonal antibody (1:1000 dilution, CW0299, CWBio) against the C-terminal Myc tag. Aβ40 production was detected using the AlphaLISA assay (PerkinElmer) as described. The IC50 values and the inhibition curves were calculated using Prism 8.0. Statistical analysis of Aβ40 was performed using Prism 8 (GraphPad Software, San Diego, CA, USA). IC50 were determined by a four-parameter logistic regression. The statistical details can be found in Figs. 1, 4 and legends. Data are expressed as mean ± SD."}, "[2]": {"target": "T2, WT PS1-complex (Homo sapiens, UniProt P49768)", "T2 construct": "made in house; host or cells: mammalian cells (HEK293F is stated for the cryo-EM samples)", "experiment": "in vitro cleavage assay, AICD production by western blot", "assay_type": "biochemical", "settings": "200 nM MRK-560, WT PS1-complex", "procedure": "(§1) The PS1- or PS2 complexes were expressed and purified as described. To validate the inhibitory effect of MRK-560 (Fig. 1a), we reconstituted an in vitro cleavage assay using the purified PS1- or PS2 complexes. Production of Aβ40, which is the major cleavage product among the varying lengths of Aβs, and AICD, whose cleavage reflects the endopeptidase activity of γ-secretase, are measured with AlphaLISA and western blots, respectively.\n(§2) Release of AICD in the presence of decreasing concentrations of MRK-560 from 10 μM to 2 nM was monitored by western blot with the primary monoclonal antibody against the C-terminal Myc tag. The production of AICD was quantified by ImageJ. Red asterisks indicate the first concentration where the normalized production of AICD was reduced to less than 20%. Each cleavage assay in (b–d) was repeated for three times. Error bars: SD. Source Data is available as a Source Data file.\n(§3) All proteins used for the activity assay were sub-cloned, expressed and purified as described. Protein concentration was determined using the Bradford method. […] The cleaved products of these substrates were detected using a monoclonal antibody (1:1000 dilution, CW0299, CWBio) against the C-terminal Myc tag. Aβ40 production was detected using the AlphaLISA assay (PerkinElmer) as described. The IC50 values and the inhibition curves were calculated using Prism 8.0."}, "[3]": {"target": "T3, WT PS2-complex (Homo sapiens, UniProt P49810)", "T3 construct": "made in house; host or cells: mammalian cells (HEK293F is stated for the cryo-EM samples)", "experiment": "in vitro cleavage assay, AICD production by western blot", "assay_type": "biochemical", "settings": "10 μM MRK-560, WT PS2-complex", "procedure": "as §1, §2, §3"}, "[4]": {"target": "T4, PS1 TL281-282PI (Homo sapiens, UniProt P49768, L282I/T281P)", "T4 construct": "made in house", "experiment": "in vitro cleavage assay, AICD production by western blot", "assay_type": "biochemical", "settings": "10 μM MRK-560, PS1 TL281-282PI", "procedure": "(§4) Fig. 4 Thr281 and Leu282 of PS1 determine the isoform selectivity of MRK-560. a–c Individual and double residue swapping of Thr281 and Leu282 in PS1 with the corresponding Pro287 and Ile288 in PS2 alter their respective sensitives to MRK-560 accordingly. IC50 values for MRK-560 inhibition of the indicated PS1 (a) and PS2 (b) mutants were measured using the AlphaLISA assay that detects Aβ40 production. Please refer to Methods for experimental details. Data are presented as mean values ± SD. c Production of AICD by residue-swapped PS1 and PS2 mutants. The amount of AICD generated by the indicated variants in the presence of serial diluted MRK-560 is consistent with the corresponding IC50 shown in (a, b). […] The production of AICD was quantified by ImageJ. Red asterisks indicate the first concentration where the normalized production of AICD was reduced to less than 20%. Source data are provided as a Source Data file. Each cleavage assay was repeated three times. Error bars: SD.\n(§5) We also examined the inhibitory effect of MRK-560 on the production of AICD by the PS1/PS2 variants (Fig. 4c).\n(§6) All proteins used for the activity assay were sub-cloned, expressed and purified as described. Protein concentration was determined using the Bradford method. […] The cleavage reaction was conducted at 37 °C for 4 h. The cleaved products of these substrates were detected using a monoclonal antibody (1:1000 dilution, CW0299, CWBio) against the C-terminal Myc tag. Aβ40 production was detected using the AlphaLISA assay (PerkinElmer) as described. The IC50 values and the inhibition curves were calculated using Prism 8.0."}, "[5]": {"target": "T5, PS1 variant L282I (Homo sapiens, UniProt P49768, L282I)", "T5 construct": "made in house", "experiment": "in vitro cleavage assay, AICD production by western blot", "assay_type": "biochemical", "settings": "1 μM MRK-560, PS1 L282I", "procedure": "as §4, §5, §6"}, "[6]": {"target": "T6, PS1 variant T281P (Homo sapiens, UniProt P49768, T281P)", "T6 construct": "made in house", "experiment": "in vitro cleavage assay, AICD production by western blot", "assay_type": "biochemical", "settings": "1 μM MRK-560, PS1 T281P", "procedure": "as §4, §5, §6"}, "[7]": {"target": "T7, PS2(PI287-288TL) (Homo sapiens, UniProt P49810, I288L/P287T)", "T7 construct": "made in house", "experiment": "in vitro cleavage assay, AICD production by western blot", "assay_type": "biochemical", "settings": "200 nM MRK-560, PS2(PI287-288TL)", "procedure": "as §4, §5, §6"}, "[8]": {"test_system": "PS2 variants", "experiment": "in vitro cleavage assay, AICD production by western blot", "assay_type": "biochemical, human", "settings": "PS2 variants versus WT PS2", "procedure": "as §4, with “Each cleavage assay was repeated three times. Error bars: SD.” left out\nas §3"}, "[9]": {"test_system": "PS1-complex over PS2", "settings": "cited from earlier work"}, "[10]": {"test_system": "Aβ production in the brain", "parameters": "method as in PMID 17099072, PMID 16443723", "settings": "cited from earlier work"}, "[11]": {"test_system": "Notch", "parameters": "method as in PMID 17099072, PMID 16443723", "settings": "wild-type (WT) mouse model; cited from earlier work"}, "[12]": {"settings": "PS2 PI 287 288 TL, MRK-560 2 nM, replicates"}, "[13]": {"settings": "PS2 PI 287 288 TL, MRK-560 40 nM, replicates"}, "[14]": {"settings": "PS2 PI 287 288 TL, MRK-560 200 nM, replicates"}, "[15]": {"settings": "PS2 PI 287 288 TL, MRK-560 1 μM, replicates"}, "[16]": {"settings": "PS2 PI 287 288 TL, MRK-560 10 μM, replicates"}, "[17]": {"settings": "PS2 PI 287 288 TL, MRK-560 20 μM, replicates"}}, "note": "Values joined by “and” are separate entries in the source; they are usually repeats but may differ in a detail not shown here. Equal entries are not always repeated. “Also recorded” adds a separate entry of the source. Where two headings read alike, the source gives them in different places.", "data": [{"smiles": "O=S(=O)(NC1CCC(c2cc(F)ccc2F)(S(=O)(=O)c2ccc(Cl)cc2)CC1)C(F)(F)F", "note": "(stereo not drawn) [MRK-560, N-[cis-4-[(4-chlorophenyl)sulfonyl]-4-(2,5-difluorophenyl)cyclohexyl]-1,1,1-trifluoromethanesulfonamide]", "values": [{"measurement": "remaining activity at 0.002 µM", "setting": "[1]; PS2 PI 287 288 TL, MRK-560 2 nM, mean of 3 replicates, read-out: Normalized production (control=1), Mean", "result": 88.4, "unit": "%"}, {"measurement": "remaining activity at 0.002 µM", "setting": "[1]; PS2 PI 287 288 TL, MRK-560 2 nM, replicates, read-out: Normalized production (control=1)", "result": 89.8, "unit": "%"}, {"measurement": "remaining activity at 0.04 µM", "setting": "[1]; PS2 PI 287 288 TL, MRK-560 40 nM, mean of 3 replicates, read-out: Normalized production (control=1), Mean", "result": 38.7, "unit": "%"}, {"measurement": "remaining activity at 0.04 µM", "setting": "[1]; PS2 PI 287 288 TL, MRK-560 40 nM, replicates, read-out: Normalized production (control=1)", "result": 36.2, "unit": "%"}, {"measurement": "remaining activity at 0.2 µM", "setting": "[1]; PS2 PI 287 288 TL, MRK-560 200 nM, mean of 3 replicates, read-out: Normalized production (control=1), Mean", "result": 6.34, "unit": "%"}, {"measurement": "remaining activity at 0.2 µM", "setting": "[1]; PS2 PI 287 288 TL, MRK-560 200 nM, replicates, read-out: Normalized production (control=1)", "result": 6.66, "unit": "%"}, {"measurement": "remaining activity at 1 µM", "setting": "[1]; PS2 PI 287 288 TL, MRK-560 1 μM, mean of 3 replicates, read-out: Normalized production (control=1), Mean", "result": 1.64, "unit": "%"}, {"measurement": "remaining activity at 1 µM", "setting": "[1]; PS2 PI 287 288 TL, MRK-560 1 μM, replicates, read-out: Normalized production (control=1)", "result": 1.65, "unit": "%"}, {"measurement": "remaining activity at 10 µM", "setting": "[1]; PS2 PI 287 288 TL, MRK-560 10 μM, mean of 3 replicates, read-out: Normalized production (control=1), Mean", "result": 0.86, "unit": "%"}, {"measurement": "remaining activity at 10 µM", "setting": "[1]; PS2 PI 287 288 TL, MRK-560 10 μM, replicates, read-out: Normalized production (control=1)", "result": 0.88, "unit": "%"}, {"measurement": "remaining activity at 20 µM", "setting": "[1]; PS2 PI 287 288 TL, MRK-560 20 μM, mean of 3 replicates, read-out: Normalized production (control=1), Mean", "result": 1.37, "unit": "%"}, {"measurement": "remaining activity at 20 µM", "setting": "[1]; PS2 PI 287 288 TL, MRK-560 20 μM, replicates, read-out: Normalized production (control=1)", "result": 1.35, "unit": "%"}, {"measurement": "Caculated Aβ40 production", "setting": "[1]; [12]", "result": "622.5323 and 598.5358 and 618.8332"}, {"measurement": "raw data from α-Lisa reading", "setting": "[1]; [12]", "result": "89195 and 86274 and 88747"}, {"measurement": "Caculated Aβ40 production", "setting": "[1]; [13]", "result": "251.4190 and 280.0544 and 273.5511"}, {"measurement": "raw data from α-Lisa reading", "setting": "[1]; [13]", "result": "39722 and 43895 and 42953"}, {"measurement": "Caculated Aβ40 production", "setting": "[1]; [14]", "result": "46.1689 and 42.1835 and 43.6058"}, {"measurement": "raw data from α-Lisa reading", "setting": "[1]; [14]", "result": "7779 and 7121 and 7356"}, {"measurement": "Caculated Aβ40 production", "setting": "[1]; [15]", "result": "11.4428 and 11.3299 and 11.2705"}, {"measurement": "Normalized production (control=1)", "setting": "[1]; [15]", "result": 0.0163}, {"measurement": "raw data from α-Lisa reading", "setting": "[1]; [15]", "result": "1994 and 1975 and 1965"}, {"measurement": "Caculated Aβ40 production", "setting": "[1]; [16]", "result": "6.1091 and 5.7952 and 6.0025"}, {"measurement": "raw data from α-Lisa reading", "setting": "[1]; [16]", "result": "1095 and 1042 and 1077"}, {"measurement": "Caculated Aβ40 production", "setting": "[1]; [17]", "result": "9.3406 and 8.5277 and 10.7299"}, {"measurement": "raw data from α-Lisa reading", "setting": "[1]; [17]", "result": "1640 and 1503 and 1874"}, {"measurement": "IC50", "setting": "[1]; PS2 PI287-288TL, mean ± SD", "result": "25 ± 4", "unit": "nM"}, {"measurement": "Generation of AICD", "setting": "[2]", "result": "completely inhibited"}, {"measurement": "Generation of AICD", "setting": "[3]", "result": "can still be detected; also recorded: could not be completely inhibited"}, {"measurement": "Generation of AICD", "setting": "[4]", "result": "could not be completely inhibited"}, {"measurement": "Generation of AICD", "setting": "[5]", "result": "still detected"}, {"measurement": "Generation of AICD", "setting": "[6]", "result": "still detected"}, {"measurement": "Generation of AICD", "setting": "[7]", "result": "completely inhibited"}, {"measurement": "sensitivity of AICD production to MRK-560", "setting": "[8]", "result": "increased sensitivity"}, {"measurement": "higher suppression of the PS1-complex over PS2", "setting": "[9]", "result": 37, "unit": "folds"}, {"measurement": "Aβ production in the brain", "setting": "[10]", "result": "reduced"}, {"measurement": "Notch-related side effect", "setting": "[11]", "result": "does not induce Notch-related side effect"}]}]}
